# Patent US4433182A, “Insecticidal 2,2'-bridged[1,1'-biphenyl]-3-ylmethyl esters” (FMC Corporation, priority 1981, dated 1984)
# Where two headings read alike, the source gives them in different places.
# Legend:
# Type in all cases: in vivo
# [1] = tested on: southern armyworm (Spodoptera eridania); test: Topical application to southern armyworm larvae; details: SAW, 24 hours after application
# Description: (§1) The activity was evaluated in topical application to southern armyworm (Spodoptera eridania), Mexican bean beetle (Epilachna varivestis), large milkweed bug (Oncopeltus fasciatus), cabbage looper (Trichoplusia ni), and tobacco budworm (Heliothis virescens). Two replicates of 10 test larvae per replicate were placed in 9 cm petri dishes, each lined with a piece of filter paper and a food source. On the second or third dorsal thoracic segment of each larva was placed a 1 microliter droplet containing the desired amount of the test compound in acetone. The toxic effect of the compound was determined 24 hours after application. An insect was considered dead if it could no longer right itself and move in an oriented pattern.
# [2] = tested on: large milkweed bug (Oncopeltus fasciatus); test: Topical application to large milkweed bug; details: MWB, 24 hours after application
# Description: as §1
# [3] = tested on: Mexican bean beetle (Epilachna varivestis); test: Topical application to Mexican bean beetle; details: MBB, 24 hours after application
# Description: as §1
# [4] = tested on: cabbage looper (Trichoplusia ni); test: Topical application to cabbage looper; details: CL, 24 hours after application
# Description: as §1
# [5] = tested on: tobacco budworm (Heliothis virescens); test: Topical application to tobacco budworm; details: TBW, 24 hours after application
# Description: as §1
# [6] = tested on: southern armyworm (Spodoptera eridania); test: Foliar application, southern armyworm mortality; details: read-out: Mortality (% killed)
# Description: (§2) The compounds were also tested in foliar applications at various concentrations in aqueous solutions containing 10% acetone and 0.25% emulsifier. The plants (English fava bean for pea aphid and pinto bean for the remaining species) were placed on a revolving turntable in a hood, and the test solutions were applied with a sprayer. The test solutions were applied to the upper and lower surfaces of the plant leaves while the turntable revolved 10 times (5 for upper surface and 5 for lower surface). The total spray time was approximately one minute, and the leaves were covered to runoff. In every case the lowest rate was applied first and the highest rate last. The plants were then allowed to dry. The treated leaves were removed and placed in 240 ml or 480 ml wax treated containers. Ten individuals of the appropriate species were placed in each container and the container capped. Mortality was read 48 hours post-treatment unless otherwise noted. Two replicates of ten individuals were made at each rate. Foliar evaluation used southern armyworm (Spodoptera eridania), Mexican bean beetle (Epilachna varivestis), pea aphid (Acyrthosiphon pisum), and twospotted spider mite (Tetranychus urticae).
# [7] = tested on: Mexican bean beetle (Epilachna varivestis); test: Foliar application, Mexican bean beetle mortality; details: read-out: Mortality (% killed)
# Description: as §2
# [8] = tested on: pea aphid (Acyrthosiphon pisum); test: Foliar application, pea aphid mortality; details: read-out: Mortality (% killed)
# Description: as §2
# [9] = tested on: twospotted spider mite (Tetranychus urticae); test: Foliar application, twospotted spider mite mortality; details: read-out: Mortality (% killed)
# Description: as §2
compound,measurement,setting,value
"CC1(C)[C@H](C=C(Cl)Cl)[C@@H]1C(=O)OCc1cccc2c1CCc1ccccc1-2 (relative stereo) [Ex. I (cis), (9,10-dihydro-1-phenanthryl)methyl cis-3-(2,2-dichloroethenyl)-2,2-dimethylcyclopropanecarboxylate]",LD50,[1],121 ng/insect
same,LD50,[2],176 ng/insect
same,LD50,[3],64 ng/insect
same,LD50,[4],241 ng/insect
same,LD50,[5],193 ng/insect
same,mortality at 16 ppm,"[6]; SAW, foliar, 48 hours",10%
same,mortality at 32 ppm,"[6]; SAW, foliar, 32 ppm, 48 hours",30%
same,mortality at 80 ppm,"[6]; SAW, foliar, 80 ppm, 48 hours",80%
same,mortality at 16 ppm,"[7]; MBB, foliar, 48 hours",30%
same,mortality at 32 ppm,"[7]; MBB, foliar, 48 hours",35%
same,mortality at 80 ppm,"[7]; MBB, foliar, 80 ppm, 48 hours",75%
same,mortality at 16 ppm,"[8]; PA, foliar, 48 hours",55%
same,mortality at 32 ppm,"[8]; PA, foliar, 48 hours",90%
"CC1(C)[C@H](C(=O)OCc2cccc3c2CCc2ccccc2-3)[C@@H]1C=C(Cl)C(F)(F)F (relative stereo) [Ex. II (cis), (9,10-dihydro-1-phenanthryl)methyl cis-3-(2-chloro-3,3,3-trifluoromethyl-1-propenyl)-2,2-dimethylcyclopropanecarboxylate]",LD50,[1],36 ng/insect
same,LD50,[2],170 ng/insect
same,LD50,[3],9.4 ng/insect
same,LD50,[4],61 ng/insect
same,LD50,[5],45 ng/insect
same,mortality at 8 ppm,[6]; 48 h,30%
same,mortality at 32 ppm,[6]; 48 h,95%
same,mortality at 8 ppm,[7]; 48 h,90%
same,mortality at 10 ppm,[8]; 48 h,85%
same,mortality at 32 ppm,[9]; 48 h,78%
"CC1(C)[C@H](C=C(Cl)Cl)[C@@H]1C(=O)OCc1cccc2c1CCCc1ccccc1-2 (relative stereo) [Ex. III (cis), (6,7-dihydro-5H-dibenzo[a,c]cyclohepten-4-yl)methyl cis-3-(2,2-dichloroethenyl)-2,2-dimethylcyclopropanecarboxylate]",LD50,[1],96 ng/insect
same,LD50,[2],104 ng/insect
same,LD50,[3],11 ng/insect
same,LD50,[4],62 ng/insect
same,LD50,[5],375 ng/insect
same,mortality at 4.5 ppm,"[6]; SAW, foliar, 4.5 ppm, 48 hours",5%
same,mortality at 10 ppm,"[6]; SAW, foliar, 10 ppm, 48 hours",40%
same,mortality at 4.5 ppm,"[7]; MBB, foliar, 4.5 ppm, 48 hours",55%
same,mortality at 10 ppm,"[7]; MBB, foliar, 10 ppm, 48 hours",85%
same,mortality at 4.5 ppm,"[8]; PA, foliar, 4.5 ppm, 48 hours",55%
same,mortality at 10 ppm,"[8]; PA, foliar, 10 ppm, 48 hours",90%
same,mortality at 10 ppm,"[9]; TSM, foliar, 10 ppm, 48 hours",13%
"CC1(C)[C@@H](C=C(Cl)Cl)[C@@H]1C(=O)OCc1cccc2c1CCCc1ccccc1-2 (relative stereo) [Ex. III (trans), (6,7-dihydro-5H-dibenzo[a,c]cyclohepten-4-yl)methyl trans-3-(2,2-dichloroethenyl)-2,2-dimethylcyclopropanecarboxylate]",LD50,[1],95 ng/insect
same,LD50,[2],315 ng/insect
same,LD50,[3],50 ng/insect
same,LD50,[4],92 ng/insect
same,LD50,[5],355 ng/insect
same,mortality at 4 ppm,"[6]; SAW, foliar, 48 hours",10%
same,mortality at 16 ppm,"[6]; SAW, foliar, 48 hours",100%
same,mortality at 4 ppm,"[7]; MBB, foliar, 48 hours",20%
same,mortality at 16 ppm,"[7]; MBB, foliar, 48 hours",55%
same,mortality at 4 ppm,"[8]; PA, foliar, 48 hours",80%
same,mortality at 16 ppm,"[8]; PA, foliar, 48 hours",90%
"CC1(C)[C@H](C(=O)OCc2cccc3c2CCCc2ccccc2-3)[C@@H]1C=C(Cl)C(F)(F)F (relative stereo) [Ex. IV (cis), (6,7-dihydro-5H-dibenzo[a,c]cyclohepten-4-yl)methyl cis-3-(2-chloro-3,3,3-trifluoromethyl-1-propenyl)-2,2-dimethylcyclopropanecarboxylate]",LD50,[1],54 ng/insect
same,LD50,[2],83 ng/insect
same,LD50,[3],4.26 ng/insect
same,LD50,[4],64 ng/insect
same,LD50,[5],212 ng/insect
same,mortality at 10 ppm,[6]; 48 h,75%
same,mortality at 2.1 ppm,[7]; 48 h,100%
same,mortality at 0.25 ppm,[8]; 48 h,80%
same,mortality at 2.1 ppm,[9]; 48 h,4%
same,mortality at 10 ppm,[9]; 48 h,100%
"CC1(C)[C@H](C(=O)OCc2cccc3c2Cc2ccccc2-3)[C@@H]1C=C(Cl)Cl (relative stereo) [Ex. V (cis), 9H-fluorene-1-methyl cis-3-(2,2-dichloroethenyl)-2,2-dimethylcyclopropanecarboxylate]",LD50,[1],460 ng/insect
same,LD50,[3],3320 ng/insect
same,mortality at 64 ppm,[6]; 48 h,0%
same,mortality at 500 ppm,[6]; 48 h,100%
same,mortality at 64 ppm,[7]; 48 h,0%
same,mortality at 64 ppm,[8]; 48 h,30%
same,mortality at 500 ppm,[8]; 48 h,90%
same,mortality at 500 ppm,[9]; 48 h,0%
"CC1(C)[C@@H](C=C(Cl)Cl)[C@@H]1C(=O)OCc1cccc2c1Cc1ccccc1-2 (relative stereo) [Ex. V (trans), 9H-fluorene-1-methyl trans-3-(2,2-dichloroethenyl)-2,2-dimethylcyclopropanecarboxylate]",mortality at 64 ppm,[6]; 48 h,0%
same,mortality at 500 ppm,[6]; 48 h,25%
same,mortality at 64 ppm,[7]; 48 h,15%
same,mortality at 64 ppm,[8]; 48 h,20%
same,mortality at 500 ppm,[8]; 48 h,0%
same,mortality at 500 ppm,[9]; 48 h,0%
"CC1(C)[C@H](C(=O)OCc2cccc3c2Cc2ccccc2-3)[C@@H]1C=C(Cl)C(F)(F)F (relative stereo) [Ex. VI (cis), 9H-fluorene-1-methyl cis-3-(2-chloro-3,3,3-trifluoromethyl-1-propenyl)-2,2-dimethylcyclopropanecarboxylate]",LD50,[1],1160 ng/insect
same,LD50,[3],762 ng/insect
same,mortality at 64 ppm,[6]; 48 h,95%
same,mortality at 500 ppm,[6]; 48 h,100%
same,mortality at 64 ppm,[7]; 48 h,0%
same,mortality at 64 ppm,[8]; 48 h,50%
same,mortality at 500 ppm,[8]; 48 h,90%
same,mortality at 500 ppm,[9]; 48 h,0%
"CC1(C)[C@H](C=C(Cl)C(F)(F)F)[C@@H]1C(=O)OCc1cccc2c1CCCCc1ccccc1-2 (relative stereo) [Ex. VII (cis), (5,6,7,8-tetrahydrodibenzo[a,c]cycloocten-4-yl)methyl cis-3-(2-chloro-3,3,3-trifluoropropenyl)-2,2-dimethylcyclopropanecarboxylate]",LD50,[1],410 ng/insect
same,LD50,[2],396 ng/insect
same,LD50,[3],20.6 ng/insect
same,mortality at 4 ppm,"[7]; MBB, foliar, 48 hours",95%
same,mortality at 4 ppm,"[8]; PA, foliar, 48 hours",0%
same,mortality at 16 ppm,"[9]; TSM, foliar, 48 hours",24%
"CC1(C)[C@H](C=C(Cl)Cl)[C@@H]1C(=O)OCc1cccc(-c2ccccc2)c1 (relative stereo) [Ref., [(1,1biphenyl)-3-yl]methyl cis3-(2,2-dichloroethenyl)-2,2-dimethylcyclopropanecarboxylate, reference compound]",LD50,[1],27 ng/insect
same,LD50,[2],620 ng/insect
same,LD50,[3],18 ng/insect
same,LD50,[4],560 ng/insect
same,LD50,[5],2330 ng/insect
same,mortality at 4 ppm,"[6]; SAW, foliar, 48 hours",90%
same,mortality at 32 ppm,"[7]; MBB, foliar, 48 hours",50%
same,mortality at 32 ppm,"[8]; PA, foliar, 48 hours",70%
same,mortality at 500 ppm,"[9]; TSM, foliar, 500 ppm, 48 hours",33%
"CC1(C)[C@H](C(=O)OCc2cccc3c2CCCCc2ccccc2-3)[C@@H]1C=C(Cl)Cl [Ex. VIII (1R,cis), (5,6,7,8-tetrahydrodibenzo[a,c]cycloocten-4-yl)methyl 1R,cis-3-(2,2-dichloroethenyl)-2,2-dimethylcyclopropanecarboxylate]",LD50,[1],201 ng/insect
same,LD50,[2],460 ng/insect
same,mortality at 4 ppm,"[7]; MBB, foliar, 48 hours",50%
same,mortality at 4 ppm,"[8]; PA, foliar, 48 hours",0%
same,mortality at 16 ppm,"[9]; TSM, foliar, 48 hours",14%
